These results are taken from patent publication US12227501B2, “3-amino-2-[2-(acylamino)pyridin-4-yl]-1,5,6,7-tetrahydro-4h-pyrrolo[3,2-c]pyridin-4-one as CSNK1 inhibitors” (Bayer Aktiengesellschaft, priority 2019, dated 2025).

The structures appear in SMILES notation. pIC50: −log10 of the molar value. “And” between values parts separate entries of the source, which are not always exact repeats. Equal entries are not always repeated. Where two headings read alike, the source gives them in different places.

Holding throughout (type): biochemical
Assay [1] addresses T1, human CSNK1A1 (Homo sapiens (Human), UniProt P48729). The assay is described as follows: CSNK1A1 Assay 2 (ADP-Glo, 1 μM ATP). The conditions noted are these: substrate biotin-Ahx-KRRRAL-pS-VASLPGL, read-out: CSNK1A1 Assay 2 IC50 [mol/l] (median). The method in brief:
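Full-length human CSNK1A1 as an N-terminal GST fusion (baculovirus/insect cells) with biotinylated peptide substrate biotin-Ahx-KRRRAL-pS-VASLPGL and 1 μM ATP, in HEPES pH 7.5 buffer. Compounds were pre-incubated with enzyme (~0.0375 ng/μL) for 15 min at 22 °C. Generated ADP was read by ADP-Glo luminescence as the activity measure.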

Assay [2] concerns the target T1, human CSNK1A1. The assay is described as follows: CSNK1A1 High ATP Assay (ADP-Glo, 1 mM ATP). The conditions noted are these: read-out: CSNK1A1 high ATP assay IC50 [mol/l] (median). The method in brief: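 Kinase activity taken as ADP generated, quantified by ADP-Glo luminescence after 1 h ATP depletion and 1 h detection at 22 °C. Enzyme is GST–full-length human CSNK1A1 (insect cell-expressed), pre-bound to compound for 15 min, with phosphopeptide substrate and 1 mM ATP.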
On the technique in general: In ADP-Glo the light output rises with the ADP produced.

The next assay deals with human CSNK1D (Homo sapiens (Human), UniProt P48730). The assay is described as follows: CSNK1D Assay (ADP-Glo, 1 μM ATP). The following applies: read-out: CSNK1D IC50 [mol/l] (median). The gist of the method: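 Activity is read as ADP produced, by ADP-Glo luminescence after 1 h steps at 22 °C. The reaction uses 1 μM ATP, a biotinylated peptide and insect-cell-expressed GST–CSNK1D (about 0.5 ng/μL) in pH 7.5 HEPES buffer, with 15 min compound–enzyme preincubation.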

In assay [3] the target is wild-type Epidermal Growth Factor Receptor (EGFR) (Homo sapiens (Human), UniProt P00533). The assay is described as follows: WT-EGFR Kinase Assay (TR-FRET, 2 mM ATP).
Setting [4] is: EGFR Wildtyp- 2 mM ATP IC50 [mol/l] (median).
Where [5] appears, read: read-out: EGFR Wildtyp- 2 mM ATP IC50 [mol/l] (median).

Sequence of human CSNK1D (P48730 whole entry): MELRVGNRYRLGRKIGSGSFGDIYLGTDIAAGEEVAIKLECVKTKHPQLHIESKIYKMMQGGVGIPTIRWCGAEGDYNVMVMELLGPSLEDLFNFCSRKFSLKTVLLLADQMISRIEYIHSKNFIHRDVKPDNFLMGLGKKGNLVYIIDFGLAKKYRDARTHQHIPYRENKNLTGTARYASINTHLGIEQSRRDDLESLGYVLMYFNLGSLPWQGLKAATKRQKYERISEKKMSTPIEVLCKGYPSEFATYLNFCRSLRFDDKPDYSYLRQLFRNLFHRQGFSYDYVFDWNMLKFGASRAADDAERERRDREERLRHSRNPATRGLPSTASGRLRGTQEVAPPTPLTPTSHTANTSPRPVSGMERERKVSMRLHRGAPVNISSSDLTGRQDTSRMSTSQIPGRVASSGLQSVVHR
T1 sequence (P48729 whole entry, the tested form may be a part): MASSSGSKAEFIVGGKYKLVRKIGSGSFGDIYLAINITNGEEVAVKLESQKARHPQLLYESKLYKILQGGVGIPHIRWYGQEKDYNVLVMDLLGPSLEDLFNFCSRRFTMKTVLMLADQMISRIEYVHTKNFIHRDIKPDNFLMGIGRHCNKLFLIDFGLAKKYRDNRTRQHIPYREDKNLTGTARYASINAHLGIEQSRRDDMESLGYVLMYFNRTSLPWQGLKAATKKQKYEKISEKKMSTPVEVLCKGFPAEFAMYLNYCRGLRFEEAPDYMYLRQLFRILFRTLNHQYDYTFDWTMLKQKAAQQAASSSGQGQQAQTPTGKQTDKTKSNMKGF
Sequence of wild-type Epidermal Growth Factor Receptor (EGFR) (P00533 669-1210): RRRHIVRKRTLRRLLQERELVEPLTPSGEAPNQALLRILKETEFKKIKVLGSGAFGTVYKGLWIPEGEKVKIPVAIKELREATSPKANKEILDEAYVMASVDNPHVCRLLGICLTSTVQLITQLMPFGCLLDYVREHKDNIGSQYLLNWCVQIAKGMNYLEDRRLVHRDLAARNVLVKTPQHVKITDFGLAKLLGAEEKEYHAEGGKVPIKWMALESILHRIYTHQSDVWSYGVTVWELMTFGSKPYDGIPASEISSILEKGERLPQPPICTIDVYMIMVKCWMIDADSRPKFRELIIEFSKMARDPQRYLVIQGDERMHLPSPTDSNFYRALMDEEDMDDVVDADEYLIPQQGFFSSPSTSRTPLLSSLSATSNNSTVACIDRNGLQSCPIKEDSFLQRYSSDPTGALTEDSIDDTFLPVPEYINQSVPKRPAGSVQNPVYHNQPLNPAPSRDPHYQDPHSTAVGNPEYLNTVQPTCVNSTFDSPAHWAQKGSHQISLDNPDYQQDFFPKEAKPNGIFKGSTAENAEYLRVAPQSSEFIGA

As for `O=C1NC2(CC2)Cc2[nH]c(-c3ccnc(NC(=O)C(CC(F)F)c4ccc(F)cc4)c3)c(Nc3ccccc3)c21` (single isomer, unassigned; enantiomer 2) [Example 149, N-[4-(3′-anilino-4′-oxo-1′,4′,5′,7′-tetrahydrospiro[cyclopropane-1,6′-pyrrolo[3,2-c]pyridin]-2′-yl)pyridin-2-yl]-4,4-difluoro-2-(4-fluorophenyl)butanamide (Enantiomer 2)], the pIC50 was 7.39 on human CSNK1A1 [1], 6.33 on human CSNK1A1 [2], 7.40 on human CSNK1D and 4.78 in assay [3] (setting [4]).
For `CC(C(=O)Nc1cc(-c2[nH]c3c(c2Nc2ccccc2)C(=O)N(C)C2(CCC2)C3)ccn1)c1ccc(F)cc1` (single isomer, unassigned; enantiomer 2) [Example 159, (+)-N-[4-(3′-anilino-5′-methyl-4′-oxo-1′,4′,5′,7′-tetrahydrospiro[cyclobutane-1,6′-pyrrolo[3,2-c]pyridin]-2′-yl)pyridin-2-yl]-2-(4-fluorophenyl)propanamide (Enantiomer 2)], the pIC50 was 7.04 at human CSNK1A1 [1], 6.66 at human CSNK1A1 [2], 7.04 on human CSNK1D and < 4.70 in assay [3] (setting [5]).
On to `CN1C(=O)c2c([nH]c(-c3ccnc(NC(=O)C(CC(F)F)c4ccc(F)cc4)c3)c2Nc2ccccc2)CC12CCC2` (single isomer, unassigned; enantiomer 2) [Example 162, (+)-N-[4-(3′-anilino-5′-methyl-4′-oxo-1′,4′,5′,7′-tetrahydrospiro[cyclobutane-1,6′-pyrrolo[3,2-c]pyridin]-2′-yl)pyridin-2-yl]-4,4-difluoro-2-(4-fluorophenyl)butanamide (Enantiomer 2)], for which the pIC50 on human CSNK1A1 [1] is 7.22; on human CSNK1A1 [2], 7.21; on human CSNK1D, 7.28; in assay [3] (setting [5]), < 4.70.
For `O=C(Cc1ccc(F)cc1)Nc1cc(-c2[nH]c3c(c2Nc2ccccc2)C(=O)N(C2CC2)CC3)ccn1` [Example 7, N-[4-(3-anilino-5-cyclopropyl-4-oxo-4,5,6,7-tetrahydro-1H-pyrrolo[3,2-c]pyridin-2-yl)pyridin-2-yl]-2-(4-fluorophenyl)acetamide] the same measures were 8.60, 6.97, 8.07 and 5.56.
For `CC(C(=O)Nc1cc(-c2[nH]c3c(c2Nc2ccccc2)C(=O)N(C2CC2)CC3)ccn1)c1ccc(F)cc1` (stereo not drawn) [Example 8, N-[4-(3-anilino-5-cyclopropyl-4-oxo-4,5,6,7-tetrahydro-1H-pyrrolo[3,2-c]pyridin-2-yl)pyridin-2-yl]-2-(4-fluorophenyl)propanamide] the same measures were 7.81, 5.71, 7.42 and < 4.70.
With `O=C(Cc1ccc(F)cc1)Nc1cc(-c2[nH]c3c(c2Nc2ccccc2Cl)C(=O)NCC3)ccn1` [Example 13, N-{4-[3-(2-chloroanilino)-4-oxo-4,5,6,7-tetrahydro-1H-pyrrolo[3,2-c]pyridin-2-yl]pyridin-2-yl}-2-(4-fluorophenyl)acetamide], the pIC50 at human CSNK1A1 [1] was 8.72; on human CSNK1A1 [2], 7.43; on human CSNK1D, 8.15; in assay [3] (setting [5]) it was 5.98.
For `CC(C(=O)Nc1cc(-c2[nH]c3c(c2Nc2ccccc2Cl)C(=O)NCC3)ccn1)c1ccc(F)cc1` (stereo not drawn) [Example 14, N-{4-[3-(2-chloroanilino)-4-oxo-4,5,6,7-tetrahydro-1H-pyrrolo[3,2-c]pyridin-2-yl]pyridin-2-yl}-2-(4-fluorophenyl)propanamide] the same measures were 8.30, 7.13, 7.85 and < 4.70.
For `CN1CCc2[nH]c(-c3ccnc(NC(=O)C(CO)c4ccc(F)cc4)c3)c(Nc3ccccc3)c2C1=O` (stereo not drawn) [Example 17, N-[4-(3-anilino-5-methyl-4-oxo-4,5,6,7-tetrahydro-1H-pyrrolo[3,2-c]pyridin-2-yl)pyridin-2-yl]-2-(4-fluorophenyl)-3-hydroxypropanamide], the pIC50 at human CSNK1A1 [1] is 7.96; on human CSNK1A1 [2] it was 7.18; at human CSNK1D, 7.41; in assay [3] (setting [4]) it was 4.84; in assay [3] (setting [5]), < 4.70.
For `O=C(Cc1ccc(F)cc1)Nc1cc(-c2[nH]c3c(c2Nc2ccccc2)C(=O)N(CC2CC2)CC3)ccn1` [Example 20, N-{4-[3-anilino-5-(cyclopropylmethyl)-4-oxo-4,5,6,7-tetrahydro-1H-pyrrolo[3,2-c]pyridin-2-yl]pyridin-2-yl}-2-(4-fluorophenyl)acetamide] the same measures were 8.01, 5.78, 7.62, 4.74 and < 4.70.
For `CCN1CCc2[nH]c(-c3ccnc(NC(=O)C(C)c4ccc(F)cc4)c3)c(Nc3ccccc3)c2C1=O` (stereo not drawn) [Example 21, N-[4-(3-anilino-5-ethyl-4-oxo-4,5,6,7-tetrahydro-1H-pyrrolo[3,2-c]pyridin-2-yl)pyridin-2-yl]-2-(4-fluorophenyl)propanamide], the pIC50 at human CSNK1A1 [1] was 8.12; at human CSNK1A1 [2] it was 6.46; at human CSNK1D, 7.67; in assay [3] (setting [5]) it was < 4.70.
For `CC(C)(O)CN1CCc2[nH]c(-c3ccnc(NC(=O)Cc4ccc(F)cc4)c3)c(Nc3ccccc3)c2C1=O` [Example 23, N-{4-[3-anilino-5-(2-hydroxy-2-methylpropyl)-4-oxo-4,5,6,7-tetrahydro-1H-pyrrolo[3,2-c]pyridin-2-yl]pyridin-2-yl}-2-(4-fluorophenyl)acetamide] the same measures were 7.57, 5.58, 7.43 and 5.14.
Take `CC(C(=O)Nc1cc(-c2[nH]c3c(c2Nc2ccccc2)C(=O)N(CC(C)(C)O)CC3)ccn1)c1ccc(F)cc1` (stereo not drawn) [Example 24, N-{4-[3-anilino-5-(2-hydroxy-2-methylpropyl)-4-oxo-4,5,6,7-tetrahydro-1H-pyrrolo[3,2-c]pyridin-2-yl]pyridin-2-yl}-2-(4-fluorophenyl)propanamide]: the pIC50 on human CSNK1A1 [1] is 7.41; on human CSNK1A1 [2], < 5.24 and 5.37; on human CSNK1D, 7.19; in assay [3] (setting [5]), < 4.70.
In the case of `CC(C(=O)Nc1cc(-c2[nH]c3c(c2Nc2ccccc2)C(=O)NC(C)(C)C3)ccn1)c1ccc(F)cc1` (stereo not drawn) [Example 27, N-[4-(3-anilino-6,6-dimethyl-4-oxo-4,5,6,7-tetrahydro-1H-pyrrolo[3,2-c]pyridin-2-yl)pyridin-2-yl]-2-(4-fluorophenyl)propanamide], the pIC50 is 8.11 at human CSNK1A1 [1]; 6.80 on human CSNK1A1 [2]; 7.44 on human CSNK1D; < 4.70 in assay [3] (setting [4]); 4.74 in assay [3] (setting [5]).
Regarding `CCN1CCc2[nH]c(-c3ccnc(NC(=O)Cc4ccc(F)cc4)c3)c(Nc3ccccc3)c2C1=O` [Example 28, N-[4-(3-anilino-5-ethyl-4-oxo-4,5,6,7-tetrahydro-1H-pyrrolo[3,2-c]pyridin-2-yl)pyridin-2-yl]-2-(4-fluorophenyl)acetamide], the pIC50 on human CSNK1A1 [1] was 7.94; on human CSNK1A1 [2], 5.70; on human CSNK1D it was 7.15; in assay [3] (setting [5]), < 4.70.
For `CN1CCc2[nH]c(-c3ccnc(NC(=O)C(CCN4CCOCC4)c4ccccc4)c3)c(Nc3ccccc3)c2C1=O` (stereo not drawn) [Example 30, N-[4-(3-anilino-5-methyl-4-oxo-4,5,6,7-tetrahydro-1H-pyrrolo[3,2-c]pyridin-2-yl)pyridin-2-yl]-4-(morpholin-4-yl)-2-phenylbutanamide] the same measures were 8.10, 6.31, 7.59 and < 4.70.
Take `CN1CCc2[nH]c(-c3ccnc(NC(=O)C(CC(F)F)c4ccccc4)c3)c(Nc3ccccc3)c2C1=O` (stereo not drawn) [Example 33, N-[4-(3-anilino-5-methyl-4-oxo-4,5,6,7-tetrahydro-1H-pyrrolo[3,2-c]pyridin-2-yl)pyridin-2-yl]-4,4-difluoro-2-phenylbutanamide]: the pIC50 was 8.21 at human CSNK1A1 [1], 7.14 on human CSNK1A1 [2], 7.74 on human CSNK1D and < 4.70 in assay [3] (setting [5]).
On to `CN1C(=O)c2c([nH]c(-c3ccnc(NC(=O)Cc4ccc(F)cc4)c3)c2Nc2ccccc2)CC1(C)C` [Example 44, N-[4-(3-anilino-5,6,6-trimethyl-4-oxo-4,5,6,7-tetrahydro-1H-pyrrolo[3,2-c]pyridin-2-yl)pyridin-2-yl]-2-(4-fluorophenyl)acetamide], for which the pIC50 at human CSNK1A1 [1] is 8.32; on human CSNK1A1 [2], 6.17; on human CSNK1D it was 7.97; in assay [3] (setting [5]), 5.38.
In the same order, the values of `CC1(C)Cc2[nH]c(-c3ccnc(NC(=O)Cc4ccncc4)c3)c(Nc3ccccc3)c2C(=O)N1` [Example 51, N-[4-(3-anilino-6,6-dimethyl-4-oxo-4,5,6,7-tetrahydro-1H-pyrrolo[3,2-c]pyridin-2-yl)pyridin-2-yl]-2-(pyridin-4-yl)acetamide] are 8.31, 7.59, 8.18 and 6.25.
